Here are results for two compounds from patent publication US20080255104A1, “Nsaid Compositions” (EQUITECH CORPORATION, priority 2004, published 2008).

Molecules are shown by their SMILES. In brackets after ≈: the same amount, converted by molar mass. Marks after values point to notes of the source that are not given here.

Series [1] is described as follows: Oral bioavailability of ibuprofen crushed tablets in control and vagal-suppressed (Pain Model) rats. The series is classed as in vivo, Sprague-Dawley rats. The note with it: Pain Model (vagal-suppressed, propantheline) rats, 20 mg/kg oral. From the text:
Delayed absorption caused by vagal suppression that has previously been reported in the literature (e.g., Jamali & Axelson, 1997) was used to test the absorption rates of new meloxicam formulations.
The animal models are adult male Sprague-Dawley rats with body weight of 250-300 g, and which were cared for in accordance with the principles and guidelines of the Canadian Council of Animal Care. All rats were catheterized in the right jugular vein for sample collection.
An animal model having suppressed vagal properties were produced by administering (intraperitoneal injection) to the rats two 20 mg/kg doses of propantheline (test, n=6), an anticholinergic agent with known vagal suppressive properties, the first dose at 2 hours prior to administration of an NSAID, and the second at 1 hour prior.
The tablets were crushed gently and small pieces were administered into the stomach via a plastic tube followed by 0.5 mL tap water. Animals were fasted after the first dose of propantheline until 4 hours post-meloxicam dose. They had free access to water.

For series [2] the following is noted: 200 mg and 600 mg doses, dental surgery; cited from earlier work.
The nature of series [3]: Solubility of meloxicam in simulated gastric fluid pH 1.2. As to conditions: for solubility at 72 h: simulated gastric fluid, pH 1.2, simulated gastric fluid, thermodynamic from solid. The series is classed as physicochemical. The method, then:
Excess of different compositions and pure meloxicam powder were transferred into test tubes.
10 ml of USP simulated gastric fluid, pH 1.2 (SGF) was added.
Samples were shaken for 72 h at room temperature.
Filtered solutions were analyzed for meloxicam.

The conditions of series [4]: pH 2-4; cited from earlier work.

For the compound `CC(C)Cc1ccc(C(C)C(=O)O)cc1` (racemic) [ibuprofen], in series [1], the “AUC (0-8)” value was 81.8 μg/h/mL^−1; the Cmax is listed as 13.8* μg/mL; the time of peak concentration (Tmax) (in general, the time at which the peak concentration occurs) was 45 min. Besides, the “delay in the mean time to peak concentration caused by surgery” value in series [2] is “two”.
As to `Cc1cnc(NC(=O)C2=C(O)c3ccccc3S(=O)(=O)N2C)s1` [meloxicam], the “solubility in simulated gastric fluid when loaded on Neusilin® and mixed with Gelucire® 44/14” value in series [3] (pH 1.2, FIG. 7) is on record as “substantially increased”. Besides, the solubility (commonly the concentration that dissolves in the medium under given conditions) at 72 h in series [3] (pH 1.2, combination of Gelucire® and Neusilin®) is 11500 µg/mL; in series [3] (pH 1.2, meloxicam alone), 7 µg/mL (≈ 19.9 µM); in series [3] (pH 1.2, with Gelucire® alone), 10 µg/mL (≈ 28.5 µM); in series [3] (pH 1.2, with the metal silicate alone), 23 to 41 µg/mL (≈ 65.5 to 117 µM). Also, in series [4], the “minimum solubility in buffered aqueous systems” value is on record as “less than 0.5 µg/ml”.
